Data reported in patent US20250332173A1, “COMPOUNDS AND METHODS FOR MODULATING NUCLEIC ACID SPLICING” (REMIX THERAPEUTICS INC., priority 2021, published 2025).
Read-outs that look alike come from different tables or passages of the source.

Key:
MYB mRNA = experiment: RT-qPCR splicing assay, MYB canonical junction (CJ) and alternative junction (AJ) mRNA; format: cell-based, human; conditions: Homo sapiens; for AC50: increase in MYB alternative junction (AJ) mRNA, read-out: MYB AJ AC50
Method in brief: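 Read-out is one-step RT-qPCR on cell lysates detecting the exon-exon junction of each isoform, normalized to a housekeeping gene (PPIA in A673, GAPDH or GUSB in K562).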

MYB = experiment: HiBiT protein abundance assay, MYB HiBiT K562 cell line; format: cell-based, human; conditions: HiBiT K562 cell line, 24 hours, top dose 10 μM; read-out: Effect on protein abundance, MYB (IC50 category)
Method in brief: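 Tagged-protein abundance measured by split-NanoBiT luminescence after lysis, following 24 h compound exposure (37° C; 10 μM top, 3-fold, 10 points; DMSO ≤0.25%) of HiBiT knock-in K562 cells. Percent response vs DMSO and unmodified-cell controls; 4-parameter logistic interpolation at 50% gave IC50.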

[1] = system: K562 (human chronic myelogenous leukemia) cells; experiment: Cell Titer Glo 2.0 cell viability assay; format: cell-based; conditions: Homo sapiens, K562, 72 h, K562 cells, 72 hours, Cell Titer Glo 2.0; read-out: K562 GI50
[2] = Table 5 panel, canonical junction qPCR, compound concentration having 50% response in CJ decrease, read-out: MYB IC50 (decrease in CJ mRNA levels)
[3] = decrease in MYB canonical junction (CJ) mRNA, RT-qPCR, read-out: MYB CJ IC50

Row | SMILES | IC50 (MYB mRNA; [2]) [nM] | IC50 (MYB mRNA; [3]) [nM] | AC50 (MYB mRNA; RT-qPCR) [nM] | IC50 (MYB) [nM] | GI50 [1] [nM]
1 | CC(=O)c1cc(-c2cc(F)c3c(=O)n(C4CCNCC4)ccc3c2)cn2cc(C)nc12 [Compound 393, 6-{8-acetyl-2-methylimidazo[1,2-a]pyridin-6-yl}-8-fluoro-2-(piperidin-4-yl)isoquinolin-1-one 2,2,2-trifluoroacetate] | 100 to 1000 | 100 to 1000 | 100 to 1000 | < 100 | 100 to 1000
2 | Cc1cn2nc(-c3ccc4c(=O)n([C@H]5CCNC[C@H]5F)cnc4c3)cc(C)c2n1 [Compound 372] | 100 to 1000 | 100 to 1000 | 100 to 1000 | 100 to 1000 | 1000 to 10000
3 | Cc1cn2cc(-c3ccc4c(=O)n(C5CCNC5)cc(C)c4c3)cc(F)c2n1 (centres unmarked) [Compound 441, 6-{8-fluoro-2-methylimidazo[1,2-a]pyridin-6-yl}-4-methyl-2-(pyrrolidin-3-yl)isoquinolin-1-one] | 1000 to 10000 | 1000 to 10000 | 1000 to 10000 | 1000 to 10000 | 1000 to 10000
4 | CCN1CCC(n2ccc3cc(-c4cc(C)c5nc(C)cn5n4)ccc3c2=O)CC1 [Compound 402, 6-{2,8-dimethylimidazo[1,2-b]pyridazin-6-yl}-2-(1-ethylpiperidin-4-yl)isoquinolin-1-one] | < 100 | 100 to 1000 | < 100 | < 100 | 100 to 1000
5 | Cc1cn2cc(-c3cc(F)c4c(=O)n([C@H]5CCNC5)ccc4c3)cc(F)c2n1 (single isomer, unassigned) [Compound 396] | < 100 | < 100 | < 100 | 100 to 1000 | 100 to 1000
6 | Cn1cc2c(n1)CCN(c1ccc3c(=O)n(C4CCNCC4)ccc3c1)C2 [Compound 509, 6-{2-methyl-4H,6H,7H-pyrazolo[4,3-c]pyridin-5-yl}-2-(piperidin-4-yl)isoquinolin-1-one] | > 10000 | > 10000 | > 10000 | > 10000 | > 10000
7 | Cc1c(O)c(-c2cc(F)c3c(=O)n(C4CCNC5(CC5)C4)ccc3c2)cc2cn(C)nc12 (centres unmarked) [Compound 419, 2-{4-azaspiro[2.5]octan-7-yl}-8-fluoro-6-(6-hydroxy-2,7-dimethylindazol-5-yl)isoquinolin-1-one] | 1000 to 10000 | 1000 to 10000 | 1000 to 10000 | 1000 to 10000 | > 10000
8 | Cc1cn2cc(-c3cc(F)c4c(=O)n(C5CCNCC5)ccc4c3)cc(F)c2n1 [Compound 370] | < 100 | < 100 | < 100 | < 100 | < 100
9 | Cc1cc(-c2ccc3c(=O)n([C@@H]4CCNC[C@H]4F)ncc3c2)cc2cn(C)nc12 [Compound 378] | 1000 to 10000 | 1000 to 10000 | 1000 to 10000 | 1000 to 10000 | 1000 to 10000
10 | Cc1cn2nc(-c3cc(F)c4c(=O)n(C5CCNC5)ccc4c3)cc(C)c2n1 (stereo in doubt) [Compound 382, (R)-6-(2,8-dimethylimidazo[1,2-b]pyridazin-6-yl)-8-fluoro-2-(pyrrolidin-3-yl)isoquinolin-1(2H)-one] | < 100 | 100 to 1000 | < 100 | 100 to 1000 | 1000 to 10000
11 | Cc1cc(-c2ccc3c(=O)n(C4CCN(C)CC4)cnc3n2)cc2cn(C)nc12 [Compound 173] | > 10000 | > 10000 | > 10000 | > 10000 | 1000 to 10000
12 | Cc1cn2cc(-n3ccc4cc(N5C[C@@H](C)N[C@@H](C)C5)ccc4c3=O)nc(C)c2n1 [Compound 454, 2-{2,8-dimethylimidazo[1,2-a]pyrazin-6-yl}-6-[(3R,5S)-3,5-dimethylpiperazin-1-yl]isoquinolin-1-one] | > 10000 | > 10000 | > 10000 | > 10000 | > 10000
13 | Cc1cc(-c2ccc3c(=O)n(C4CCNCC4)cnc3c2)cc2cn(C)nc12 [Compound 174] | 100 to 1000 | 100 to 1000 | 100 to 1000 | < 100 | 100 to 1000
14 | Cc1cn2cc(-c3cc(F)c4c(=O)n(C5CCNCC5)cc(C)c4c3)cc(F)c2n1 [Compound 461, 8-fluoro-6-{8-fluoro-2-methylimidazo[1,2-a]pyridin-6-yl}-4-methyl-2-(piperidin-4-yl)isoquinolin-1-one] | < 100 | < 100 | < 100 | < 100 | < 100
15 | Cc1cn2cc(-c3cc(F)c4c(=O)n([C@@H]5CCNC5)ccc4c3)cc(F)c2n1 (single isomer, unassigned) [Compound 395] | < 100 | 100 to 1000 | < 100 | 100 to 1000 | 100 to 1000
16 | Cc1cn2cc(-c3cc(F)c4c(=O)n(C5CCNC5)ccc4c3)cc(C#N)c2n1 (centres unmarked) [Compound 434, 6-[8-fluoro-1-oxo-2-(pyrrolidin-3-yl)isoquinolin-6-yl]-2-methylimidazo[1,2-a]pyridine-8-carbonitrile] | 100 to 1000 | 100 to 1000 | 100 to 1000 | 1000 to 10000 | 1000 to 10000
17 | Cc1cn2nc(-c3cc4ccn(C5CCNCC5)c(=O)c4cc3O)cc(C)c2n1 [Compound 448, 6-{2,8-dimethylimidazo[1,2-b]pyridazin-6-yl}-7-hydroxy-2-(piperidin-4-yl)isoquinolin-1-one] | < 100 | < 100 | < 100 | < 100 | < 100
18 | Cc1nc2c(F)cc(-c3cc(F)c4c(=O)n(C5CCNC6(CC6)C5)ccc4c3)cc2n1C (centres unmarked) [Compound 430, 8-fluoro-6-(4-fluoro-1,2-dimethyl-1H-benzo[d]imidazol-6-yl)-2-(4-azaspiro[2.5]octan-7-yl)isoquinolin-1(2H)-one] | > 10000 | > 10000 | > 10000 | 1000 to 10000 | 1000 to 10000
19 | Cc1cc(-c2cc(F)c3c(=O)n(C4CCNC5(CC5)C4)ccc3c2)cc2c1nc(C)n2C (centres unmarked) [Compound 429] | > 10000 | > 10000 | > 10000 | 1000 to 10000 | 1000 to 10000
20 | Cc1cn2nc(-c3ccc4c(=O)n(C5CCCNC5)ccc4c3)cc(C)c2n1 (stereo in doubt) [Compound 411, 6-{2,8-dimethylimidazo[1,2-b]pyridazin-6-yl}-2-[(3R)-piperidin-3-yl]isoquinolin-1-one] | 1000 to 10000 | 1000 to 10000 | 1000 to 10000 | 1000 to 10000 | 1000 to 10000
21 | Cc1cn2nc(-c3cc(F)c4c(=O)n([C@H]5CCNC6(CC6)C5)ncc4c3)cc(C)c2n1 [Compound 447] | < 100 | < 100 | < 100 | < 100 | 100 to 1000
22 | Cn1cc2c(n1)CCN(c1cc(F)c3c(=O)n(C4CCNCC4)cnc3c1)C2 [Compound 365, 5-fluoro-7-(2-methyl-2,4,6,7-tetrahydro-5H-pyrazolo[4,3-c]pyridin-5-yl)-3-(piperidin-4-yl)quinazolin-4(3H)-one] | 1000 to 10000 | 1000 to 10000 | 1000 to 10000 | 1000 to 10000 | > 10000
23 | Cn1cc2cc(-c3cc(F)c4c(=O)n(C5CCNC6(CC6)C5)ccc4c3)c(O)c(F)c2n1 (centres unmarked) [Compound 420, 2-{4-azaspiro[2.5]octan-7-yl}-8-fluoro-6-(7-fluoro-6-hydroxy-2-methylindazol-5-yl)isoquinolin-1-one] | 100 to 1000 | 100 to 1000 | 100 to 1000 | 100 to 1000 | 1000 to 10000
24 | COc1cc2c(=O)n(C3CCNCC3)ccc2cc1-c1cc(C)c2nc(C)cn2n1 [Compound 449, 6-{2,8-dimethylimidazo[1,2-b]pyridazin-6-yl}-7-methoxy-2-(piperidin-4-yl)isoquinolin-1-one] | > 10000 | > 10000 | > 10000 | > 10000 | > 10000
25 | Cn1cc2cc(-n3cnc4cc(C5CCNCC5)ccc4c3=O)ccc2n1 [Compound 172] | > 10000 | > 10000 | > 10000 | > 10000 | 1000 to 10000
26 | Cc1cn2cc(-c3ccc4c(=O)n(C5CCNC5)cc(C)c4c3)cc(C#N)c2n1 (centres unmarked) [Compound 442, 2-methyl-6-[4-methyl-1-oxo-2-(pyrrolidin-3-yl)isoquinolin-6-yl]imidazo[1,2-a]pyridine-8-carbonitrile] | > 10000 | > 10000 | > 10000 | > 10000 | > 10000
27 | Cc1nc2c(C)cc(-c3cc(F)c4c(=O)n(C5CCNC6(CC6)C5)ccc4c3)cc2o1 (centres unmarked) [Compound 418, 2-{4-azaspiro[2.5]octan-7-yl}-6-(2,4-dimethyl-1,3-benzoxazol-6-yl)-8-fluoroisoquinolin-1-one] | < 100 | < 100 | < 100 | < 100 | 100 to 1000
28 | Cc1cn2cc(-c3ccc4c(=O)n([C@H]5CCNC5)cc(C)c4c3)cc(C#N)c2n1 [Compound 456, (S)-2-methyl-6-(4-methyl-1-oxo-2-(pyrrolidin-3-yl)-1,2-dihydroisoquinolin-6-yl)imidazo[1,2-a]pyridine-8-carbonitrile] | > 10000 | > 10000 | > 10000 | 1000 to 10000 | > 10000
